We go through 26 molecules from patent US20240199546A1, “INHIBITORS OF SOLUTE CARRIER FAMILY 6A MEMBER 19 (SLC6A19) AND METHODS OF USE THEREOF” (Maze Therapeutics, Inc., priority 2022, published 2024).

Structures are written as SMILES. pIC50: −log10 of the molar value.

A word on the pIC50: it is the IC50 on a negative log10 scale, so that one unit is a factor of ten.

This test concerns the target T1, human SLC6A19 and TMEM27 (Homo sapiens, UniProt Q695T7).
T1 construct: expressed in transfected cells
T1 sequence (Q695T7 1-634): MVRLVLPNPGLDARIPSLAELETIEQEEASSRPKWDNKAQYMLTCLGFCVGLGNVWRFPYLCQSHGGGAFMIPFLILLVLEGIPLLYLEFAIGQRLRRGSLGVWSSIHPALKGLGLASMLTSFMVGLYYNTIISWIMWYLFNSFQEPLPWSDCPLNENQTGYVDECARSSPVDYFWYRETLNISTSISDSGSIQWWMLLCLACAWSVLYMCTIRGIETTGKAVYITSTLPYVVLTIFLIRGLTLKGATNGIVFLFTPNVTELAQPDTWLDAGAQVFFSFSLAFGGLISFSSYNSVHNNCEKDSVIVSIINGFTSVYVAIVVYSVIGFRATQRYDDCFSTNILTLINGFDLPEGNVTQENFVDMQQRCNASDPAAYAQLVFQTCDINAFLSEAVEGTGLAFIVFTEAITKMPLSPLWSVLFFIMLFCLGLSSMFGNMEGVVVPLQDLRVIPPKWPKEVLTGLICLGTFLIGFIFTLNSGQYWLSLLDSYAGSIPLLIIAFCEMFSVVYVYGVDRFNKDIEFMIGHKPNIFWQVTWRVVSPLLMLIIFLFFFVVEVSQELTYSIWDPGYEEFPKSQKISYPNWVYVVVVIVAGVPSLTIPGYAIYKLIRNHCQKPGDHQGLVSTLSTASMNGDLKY
T1 sequence (Q9HBJ8 15-222 partner): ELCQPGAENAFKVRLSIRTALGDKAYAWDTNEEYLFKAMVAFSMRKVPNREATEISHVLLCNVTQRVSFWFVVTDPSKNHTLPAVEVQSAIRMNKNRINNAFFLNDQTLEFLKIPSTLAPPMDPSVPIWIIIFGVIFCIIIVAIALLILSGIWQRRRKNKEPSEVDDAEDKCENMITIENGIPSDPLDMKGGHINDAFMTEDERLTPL
As to the kind of experiment: Radiolabelled (3H) leucine uptake in CHO cells with doxycycline-inducible expression of human SLC6A19 and TMEM27 (Example B-1). The settings on record: CHO cells with doxycycline-inducible expression of human SLC6A19 and TMEM27, read-out: SLC6A19_Radioligand Uptake Assay IC50. It is filed as cell-based. Summed up: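 CHO cells were induced with doxycycline for 18 h at 37 °C, washed in HBSS, then exposed to compounds for 1 h: 8-point, 3-fold dilutions in duplicate, 0.5% DMSO final. Uptake measured by scintillation counting after 2 h shaking. Activity normalized with positive control as 0% and DMSO as 100%.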
For the molecule `CCc1cc2cc(CNC(=O)C3(C)CC3)[nH]c2cc1OCc1ccon1` [Compound 61, N-((5-ethyl-6-(isoxazol-3-ylmethoxy)-1H-indol-2-yl)methyl)-1-methylcyclopropane-1-carboxamide], the pIC50 is 6.53. To `Cc1coc(COc2cc3[nH]c(CNC(=O)C4(C)CC4)cc3cc2Cl)n1` [Compound 71, N-((5-chloro-6-((4-methyloxazol-2-yl)methoxy)-1H-indol-2-yl)methyl)-1-methylcyclopropane-1-carboxamide] belongs 6.95. To `CC1(C(=O)NCc2cc3cc(F)c(OCc4cc(C(F)(F)F)on4)cc3[nH]2)CC1` [Compound 72, N-((5-fluoro-6-((5-(trifluoromethyl)isoxazol-3-yl)methoxy)-1H-indol-2-yl)methyl)-1-methylcyclopropane-1-carboxamide] belongs 5.91; to `CC(O)C(=O)NCc1cc2cc(Cl)c(OCc3cscn3)cc2[nH]1` (centres unmarked) [Compound 243, N-((5-chloro-6-(thiazol-4-ylmethoxy)-1H-indol-2-yl)methyl)-2-hydroxypropanamide], 6.47; to `CNCC(=O)NCc1cc2cc(Cl)c(OCc3cscn3)cc2[nH]1` [Compound 614, N-((5-chloro-6-(thiazol-4-ylmethoxy)-1H-indol-2-yl)methyl)-2-(methylamino)acetamide], 5.49. For `O=C(NCc1cc2cc(Cl)c(CCc3ccon3)cc2[nH]1)N1CCC1` [Compound 595, N-((5-chloro-6-(2-(isoxazol-3-yl)ethyl)-1H-indol-2-yl)methyl)azetidine-1-carboxamide] the value was 6.62; for `CN(C(=O)NCc1cc2cc(Cl)c(OCc3cscn3)cc2[nH]1)C1CC1` [Compound 359, 3-((5-chloro-6-(thiazol-4-ylmethoxy)-1H-indol-2-yl)methyl)-1-cyclopropyl-1-methylurea], 6.64. For the molecule `Cc1cc(COc2cc3[nH]c(CNC(=O)N4CC(F)C4)cc3cc2Cl)on1` [Compound 372, N-((5-chloro-6-((3-methylisoxazol-5-yl)methoxy)-1H-indol-2-yl)methyl)-3-fluoroazetidine-1-carboxamide], the pIC50 is 6.60. For `CNC(=O)NCc1cc2cc(F)c(OCc3cc(C)on3)cc2[nH]1` [Compound 212, 1-((5-fluoro-6-((5-methylisoxazol-3-yl)methoxy)-1H-indol-2-yl)methyl)-3-methylurea] the value was 6.37.

Take `C[C@@H]1CCN1C(=O)NCc1cc2cc(Cl)c(OCc3ccon3)cc2[nH]1` [Compound 363, (R)-N-((5-chloro-6-(isoxazol-3-ylmethoxy)-1H-indol-2-yl)methyl)-2-methylazetidine-1-carboxamide]: the pIC50 was 6.48. For `Cc1cc(COc2cc3[nH]c(CNC(=O)Cn4cccn4)cc3cc2Cl)on1` [Compound 521, N-((5-chloro-6-((3-methylisoxazol-5-yl)methoxy)-1H-indol-2-yl)methyl)-2-(1H-pyrazol-1-yl)acetamide] the value was below 5.10; for `Cc1cc(COc2cc3[nH]c(CNC(=O)[C@@H](C)CO)cc3cc2Cl)on1` [Compound 535, (S)-N-((5-chloro-6-((3-methylisoxazol-5-yl)methoxy)-1H-indol-2-yl)methyl)-3-hydroxy-2-methylpropanamide], 5.78. For `Cc1cc(CNc2cc3[nH]c(CNC(=O)C4(C)CC4)cc3cc2Cl)no1` [Compound 451, N-((5-chloro-6-(((5-methylisoxazol-3-yl)methyl)amino)-1H-indol-2-yl)methyl)-1-methylcyclopropane-1-carboxamide] the value was 6.63.

Consider `CC(=O)NCc1cc2cc(Cl)c(OC[C@H]3CCCO3)cc2[nH]1` [Compound 465, (R)-N-((5-chloro-6-((tetrahydrofuran-2-yl)methoxy)-1H-indol-2-yl)methyl)acetamide], for which the negative logarithm of the IC50 (pIC50) is 5.21. For `Cc1cc(COc2cc3[nH]c(CNC(=O)[C@@H]4C[C@@H](F)CN4)cc3cc2Cl)on1` [Compound 665, (2S,4R)—N-((5-chloro-6-((3-methylisoxazol-5-yl)methoxy)-1H-indol-2-yl)methyl)-4-fluoropyrrolidine-2-carboxamide] the value was 5.81; for `O=C(NCc1cc2cc(F)c(CCc3cscn3)cc2[nH]1)N1CCC1` [Compound 600, N-((5-fluoro-6-(2-(thiazol-4-yl)ethyl)-1H-indol-2-yl)methyl)azetidine-1-carboxamide], 6.84; for `CC1(C(=O)NCc2cc3cc(Cl)c(OCCc4ccon4)cc3[nH]2)CC1` [Compound 103, N-((5-chloro-6-(2-(isoxazol-3-yl)ethoxy)-1H-indol-2-yl)methyl)-1-methylcyclopropane-1-carboxamide], 6.94.

As for `[2H]C([2H])([2H])c1cc(COc2cc3[nH]c(CNC(=O)C4(C)CC4)cc3cc2Cl)no1` [Compound 663, N-((5-chloro-6-((5-(methyl-d3)isoxazol-3-yl)methoxy)-1H-indol-2-yl)methyl)-1-methylcyclopropane-1-carboxamide], the negative logarithm of the IC50 (pIC50) is 6.87. For `CCOCCOc1cc2[nH]c(CNC(C)=O)cc2cc1Cl` [Compound 459, N-((5-chloro-6-(2-ethoxyethoxy)-1H-indol-2-yl)methyl)acetamide] the value was 6.30; for `CC1(C(=O)NCc2cc3ccc(OCc4ccon4)c(F)c3[nH]2)CC1` [Compound 201, N-((7-fluoro-6-(isoxazol-3-ylmethoxy)-1H-indol-2-yl)methyl)-1-methylcyclopropane-1-carboxamide], 5.29; for `O=C(NCc1cc2cc(Cl)c(OCc3cscn3)cc2[nH]1)N1CCC1CO` (racemic) [Compound 365, (S)-N-((5-chloro-6-(thiazol-4-ylmethoxy)-1H-indol-2-yl)methyl)-2-(hydroxymethyl)azetidine-1-carboxamide and (R)-N-((5-chloro-6-(thiazol-4-ylmethoxy)-1H-indol-2-yl)methyl)-2-(hydroxymethyl)azetidine-1-carboxamide], 6.00.

Consider `O=C(NCc1cc2cc(Cl)c(OCc3cscn3)cc2[nH]1)C1CCC1` [Compound 490, N-((5-chloro-6-(thiazol-4-ylmethoxy)-1H-indol-2-yl)methyl)cyclobutanecarboxamide], for which the negative-log IC50 (pIC50) was 6.75. To `O=C(NCc1cc2c(F)cc(OCc3cscn3)cc2[nH]1)N1CCC1` [Compound 422, N-((4-fluoro-6-(thiazol-4-ylmethoxy)-1H-indol-2-yl)methyl)azetidine-1-carboxamide] belongs 6.47; to `O=C(NCc1cc2cc(Cl)c(OCc3cscn3)cc2[nH]1)[C@H]1CCOC1` [Compound 308, (S)-N-((5-chloro-6-(thiazol-4-ylmethoxy)-1H-indol-2-yl)methyl)tetrahydrofuran-3-carboxamide], 6.77. To `Cc1cc(C(C)Cc2ccc3cc(CNC(=O)C4(C)CC4)[nH]c3c2)no1` (centres unmarked) [Compound 195, 1-methyl-N-((6-(2-(5-methylisoxazol-3-yl)propyl)-1H-indol-2-yl)methyl)cyclopropanecarboxamide] belongs 4.83.

With `Cc1cc(COc2cc3[nH]c(CNC(=O)CO)cc3cc2Cl)on1` [Compound 242, N-((5-chloro-6-((3-methylisoxazol-5-yl)methoxy)-1H-indol-2-yl)methyl)-2-hydroxyacetamide], the negative-log IC50 (pIC50) was 6.17.
